Assay [1] has as its system TS/A (ER+, Her2−) murine mammary cancer cells. Description: MTT cell viability assay, TS/A cells. The conditions noted are these: Mus musculus, 24 h, read-out: IC50 on cell viability, TS/A (ER+, Her2−). It counts as cell-based. The method, then: (§1) Normal or cancer cells (2×10^3 to 1×10^4 cells/well) were seeded in 96-well plate for overnight and treated with different compounds for 24 h to 72 h. Cells growth were determined by MTT-based colorimetric assays according to. Viability of the test cells treated with vehicle (0.5% DMSO) only was defined as 100% viable. Survival of cells after treatment with DETDs was calculated using the following formula: viable cell number (%)=OD570 (treated cell culture)/OD570 (vehicle control)×100.
(§2) Sixty DETDs were derived from parental compound […] and tested for anti-breast cancer cell activity.
Background: Tetrazolium assays rely on reduction of a dye to a coloured formazan, in cell work by metabolically active cells.

Assay [2] deals with MDA-MB-231 (ER−, PR−, Her2−) human breast cancer cells. Description: MTT cell viability assay, MDA-MB-231 cells. It counts as cell-based. The conditions noted are these: Homo sapiens, MDA-MB-231, 24 h, read-out: IC50 on cell viability, MDA-MB-231 (ER−, PR−, Her2−). As for the experimental part: as §1, §2
The subject of assay [3] is MCF-7 (ER+, Her2−) human breast cancer cells. Nature of the assay: MTT cell viability assay, MCF-7 cells. Format: cell-based. The conditions noted are these: MCF7, 24 h, read-out: IC50 on cell viability, MCF-7 (ER+, Her2−). As for the experimental part:
as §1, §2

Assay [4] has as its system M10 normal mammary epithelial cells. Nature of the assay: MTT cell viability assay, M10 normal cells. It counts as cell-based, human. The conditions noted are these: 24 h; for IC50: Homo sapiens, Epithelial cell. The method, then: as §1, §2
Assay [5] has as its system B16-F10 (NRAS mutation). Description: MTT cell viability assay, B16-F10 melanoma. It counts as cell-based. The conditions noted are these: Mus musculus, B16-F10, 24 h, read-out: IC50 on cell viability, B16-F10 (NRAS mutation). As for the experimental part: as §1
(§3) Several genes are involved in melanoma development and pathology; specifically, mutation in V-raf murine sarcoma viral oncogene homolog B1 (B-RAF) occurs approximately 50-60% and in neuroblastoma RAS viral oncogene homolog (N-RAS) occurs about 30% of malignant melanomas. A spectrum of wild-type or mutated melanoma cell lines including B16-F10, MeWo, A375, A2058, HTB-68, and melanocyte were used to study anti-melanoma cell proliferation activity of parental phytocompound DET and newly synthesized DETDs.

Assay [6] concerns MeWo (No NRAS or BRAF mutation). Nature of the assay: MTT cell viability assay, MeWo melanoma. Format: cell-based, human. The conditions noted are these: Homo sapiens, MeWo, 24 h. As for the experimental part:
as §1, §3

The test system of assay [7] is HTB-68 (NRAS mutation). Nature of the assay: MTT cell viability assay, HTB-68 melanoma. It counts as cell-based, human. The conditions noted are these: Homo sapiens, 24 h. The method, then: as §1, §3
For assay [8], the system named is A2058 (BRAF mutation). Nature of the assay: MTT cell viability assay, A2058 melanoma. Format: cell-based, human. The conditions noted are these: Homo sapiens, A2058, 24 h. The method, then: as §1, §3
Assay [9] has as its system A375 (BRAF mutation). Description: MTT cell viability assay, A375 melanoma. It counts as cell-based, human. The conditions noted are these: Homo sapiens, A-375, 24 h, read-out: IC50 on cell viability, A375 (BRAF mutation). The method, then: as §1, §3
To investigate whether or not DETD-35 show synergism with PLX4032 against A375 melanoma cells, we performed anti-proliferation assay using MTT reagent to obtain IC50 of each compound. […] The synergistic effect was quantified by combination index (CI) analysis as stated above.

The test system of assay [10] is Melanocyte (Normal cells). Description: MTT cell viability assay, normal melanocytes. Format: cell-based, human. The conditions noted are these: Homo sapiens, Melanocyte, 24 h. As for the experimental part: as §1, §3
Assay [11] deals with RAW264.7 (normal macrophage). Nature of the assay: MTT cell viability assay, RAW264.7 macrophages. The conditions noted are these: Mus musculus, RAW264.7, 24 h. It counts as cell-based, mouse. The method, then: as §1
(§4) Marcophages (2×10^5 cells/well in 96-well plate) were treated with compounds for 1 h, then incubated further for 24 h with or without the presence of […] LPS in the cultural medium. Nitrite levels in cell culture medium were determined by the Griess reaction method. In parallel to the Griess assays, macrophage cell viabilities were determined using the MTT based colorimetric assay.

Assay [12] has as its system LPS-induced nitric oxide (NO) production in RAW 264.7 cells. Description: Nitric oxide production in LPS-stimulated macrophages (Griess). It counts as cell-based, mouse. The conditions noted are these: Mus musculus; LPS-stimulated RAW264.7, nitrite 24 h after LPS. As for the experimental part:
as §4
LPS from the outer membrane of Gram-negative bacteria can induce mRNA or protein levels of inducible nitric oxide synthase (iNOS), which catalyzes oxidative deamination of L-arginine to produce nitric oxide (NO). Once NO is predominantly produced, it interacts with superoxide anion and generates highly reactive oxidants resulting in cellular inflammation, DNA, protein and tissue damages, carcinogenesis, and antiapoptosis. We used in vitro LPS stimulated inflammation in RAW264.7 cell system to evaluate the effect of DET and its derivatives DETDs on NO production by determination of nitrite level (equivalent to NO level) in culture medium 24 h after LPS treatment.
Background: The Griess reaction detects nitrite, a stable product of nitric oxide.

Molecules are shown by their SMILES. Read-outs that look alike come from different tables or passages of the source.

`C=C1C(=O)OC2CC3=C[C@@H](C/C(C)=C/C(OC(=O)C=C(C)CCC=C(C)C)[C@H]12)OC3=O` (stereo partly shown) [DETD-14]: the IC50 was more than 7.5 µM in assay [1]; more than 7.5 µM in assay [2]; more than 7.5 µM in assay [3]; more than 7.5 µM in [4]; more than 10 µM in [5] (24 h); more than 10 µM in assay [6]. Further, the IC50 in [7] was more than 10 µM; in [8], more than 10 µM; in assay [9] (24 h, MTT) it was more than 10 µM; in assay [10], more than 10 µM; in [11] it was more than 10 µM; in [12] it was 2.2 µM.

For `C=C1C(=O)OC2CC3=C[C@@H](C/C(C)=C/C(OC(=O)C(CC)CC)[C@H]12)OC3=O` (stereo partly shown) [DETD-16], the IC50 in assay [1] was 2.1 µM; in assay [2], 7 µM; in assay [3], 3.9 µM; in assay [4], more than 7.5 µM; in [5] (24 h) it was more than 10 µM; in assay [6], more than 10 µM. Besides, the IC50 is more than 10 µM in assay [7]; more than 10 µM in [8]; more than 10 µM in assay [9] (24 h, MTT); more than 10 µM in assay [10]; more than 10 µM in assay [11]; 3.2 µM in assay [12].

As for `C=C1C(=O)OC2CC3=C[C@@H](C/C(C)=C/C(OC(C)=O)[C@H]12)OC3=O` (stereo partly shown) [DETD-17], the IC50 was 3.5 µM in assay [1]; more than 7.5 µM in assay [2]; 6.7 µM in [3]; more than 7.5 µM in [4]; more than 10 µM in assay [5]; more than 10 µM in assay [6]. Moreover, the IC50 in [7] was more than 10 µM; in [8] it was more than 10 µM; in assay [9], more than 10 µM; in assay [10] it was more than 10 µM; in assay [11] it was more than 10 µM; in [12], 2 µM.

On to `C=C1C(=O)OC2CC3=C[C@@H](C/C(C)=C/C(OC(=O)CC(C)CC)[C@H]12)OC3=O` (stereo partly shown) [DETD-18], for which the IC50 in [1] is 3.3 µM; in assay [2] it was 5.5 µM; in assay [3], 2.6 µM; in [4], more than 7.5 µM; in assay [5] (24 h) it was 8.4 µM; in assay [6], more than 10 µM. The IC50 in assay [7] is more than 10 µM; in assay [8], more than 10 µM; in [9] (24 h, MTT), more than 10 µM; in assay [10] it was more than 10 µM; in assay [11] it was more than 10 µM; in assay [12], 3.4 µM.

Consider `C=C(CC)C(=O)OC1/C=C(\C)C[C@@H]2C=C(CC3OC(=O)C(=C)[C@@H]13)C(=O)O2` (stereo partly shown) [DETD-19], for which the IC50 in assay [1] was 1.7 µM; in [2], 4.6 µM; in assay [3], 3.5 µM; in assay [4], more than 7.5 µM; in assay [5] (24 h), 7.8 µM; in assay [6], more than 10 µM. Also, the IC50 was more than 10 µM in assay [7]; more than 10 µM in assay [8]; more than 10 µM in assay [9] (24 h, MTT); more than 10 µM in [10]; more than 10 µM in assay [11]; 3.8 µM in [12].

`C=C1C(=O)OC2CC3=C[C@@H](C/C(C)=C/C(OC(=O)C(C)CCC)[C@H]12)OC3=O` (stereo partly shown) [DETD-20]: the IC50 in assay [1] is 2.2 µM; in assay [2] it was 5.8 µM; in [3] it was 3.5 µM; in assay [4] it was more than 7.5 µM; in assay [5] (24 h) it was 9 µM; in assay [6] it was more than 10 µM. The IC50 was more than 10 µM in assay [7]; more than 10 µM in [8]; more than 10 µM in [9] (24 h, MTT); more than 10 µM in [10]; more than 10 µM in [11]; 4.2 µM in assay [12].

For `C=C1C(=O)OC2CC3=C[C@@H](C/C(C)=C/C(OC(=O)C(CC)CCCC)[C@H]12)OC3=O` (stereo partly shown) [DETD-21], the IC50 in assay [1] is 4 µM; in assay [2] it was more than 7.5 µM; in assay [3], 4.5 µM; in assay [4], more than 7.5 µM; in [5] (24 h), more than 10 µM; in [6] it was more than 10 µM. Moreover, the IC50 is more than 10 µM in [7]; more than 10 µM in assay [8]; more than 10 µM in [9] (24 h, MTT); more than 10 µM in assay [10]; more than 10 µM in [11]; 4.7 µM in assay [12].

`C=C1C(=O)OC2CC3=C[C@@H](C/C(C)=C/C(OC(=O)C(C)CCCC)[C@H]12)OC3=O` (stereo partly shown) [DETD-22]: the IC50 was 1.8 µM in [1]; 4.3 µM in assay [2]; 2.5 µM in assay [3]; 4.7 µM in assay [4]; 6.8 µM in assay [5] (24 h); more than 10 µM in [6]. In addition, the IC50 is more than 10 µM in assay [7]; more than 10 µM in assay [8]; more than 10 µM in assay [9] (24 h, MTT); more than 10 µM in assay [10]; more than 10 µM in assay [11]; 3.5 µM in assay [12].

`C=C1C(=O)OC2CC3=C[C@@H](C/C(C)=C/C(OC(=O)CC(O)(C(C)C)C(C)C)[C@H]12)OC3=O` (stereo partly shown) [DETD-23]: the IC50 is 2.4 µM in assay [1]; 5.9 µM in [2]; 2.5 µM in [3]; more than 7.5 µM in [4]; 8.6 µM in [5]; more than 10 µM in [6]. The IC50 in [7] is more than 10 µM; in assay [8] it was more than 10 µM; in [9], more than 10 µM; in [10], more than 10 µM; in [11], more than 10 µM; in assay [12], 3.8 µM.

As for `C=C1C(=O)OC2CC3=C[C@@H](C/C(C)=C/C(OC(=O)/C=C/C)[C@H]12)OC3=O` (stereo partly shown) [DETD-24], the IC50 in assay [1] is 2.3 µM; in assay [2], more than 7.5 µM; in assay [3] it was 3.9 µM; in assay [4], more than 7.5 µM; in assay [5] (24 h), more than 10 µM; in assay [6] it was more than 10 µM. For the same compound, the IC50 is more than 10 µM in assay [7]; more than 10 µM in [8]; more than 10 µM in assay [9] (24 h, MTT); more than 10 µM in [10]; more than 10 µM in assay [11]; 4.4 µM in assay [12].

`C=C1C(=O)OC2CC3=C[C@@H](C/C(C)=C/C(OC(=O)/C=C/CC)[C@H]12)OC3=O` (stereo partly shown) [DETD-25]: the IC50 in assay [1] was 4 µM; in [2] it was more than 7.5 µM; in [3] it was 5.8 µM; in assay [4], more than 7.5 µM; in assay [5] (24 h), more than 10 µM; in assay [6] it was more than 10 µM. For the same compound, the IC50 in assay [7] was more than 10 µM; in [8], more than 10 µM; in assay [9] (24 h, MTT), more than 10 µM; in assay [10], more than 10 µM; in assay [11] it was more than 10 µM; in assay [12] it was 4.9 µM.

Consider `C=C1C(=O)OC2CC3=C[C@@H](C/C(C)=C/C(OC(=O)/C=C/c4ccc(OC)cc4)[C@H]12)OC3=O` (stereo partly shown) [DETD-26], for which the IC50 in assay [1] was 1.5 µM; in [2], 4.1 µM; in assay [3], 3.7 µM; in assay [4], 4.7 µM; in assay [5] (24 h), 5 µM; in assay [6], more than 10 µM. In addition, the IC50 in assay [7] was more than 10 µM; in [8], more than 10 µM; in assay [9] (24 h, MTT), more than 10 µM; in assay [10], more than 10 µM; in assay [11] it was more than 10 µM; in assay [12] it was 1.7 µM. In addition, the “IC50 on cell viability, M10 (normal)” value in assay [4] was “some toxicity”.

Source of the values: patent US10238631B2, “Sesquiterpene derivatives and their use in inflammation or cancer treatment” (Academia Sinica, priority 2014, dated 2019).
